Source: patent publication US11643405B2, “Compound for treatment or prevention of liver diseases” (JIANGSU ATOM BIOSCIENCE AND PHARMACEUTICAL CO., LTD., priority 2018, dated 2023)
Values after ≈ are worked out from the molar mass of the structure shown. Marks after values point to notes of the source that are not given here.

Assays:
[1] = Determination of compound solubility in PBS buffer (LC-MS/MS); type: physicochemical; details: for solubility at 2 h: 25 °C, kinetic from dmso stock; for Solubility in PBS buffer solution compared with silymarin (in words): pH 4
Experimental: The test compounds were 7, 67 and 85, respectively; the control compound was silymarin, purchased from Shanghai Dibai Biotechnology Co., Ltd., with the batch number HH06. Both the test compounds and the control compound were prepared into 10 mM stock solutions using DMSO. Phosphate buffered saline (PBS), with pH of 4.0 and 7.4, was used to test the solubility of the test compounds.
Treatment of test compound and control compound: 30 μL of test compound or control compound stock solution (10 mM) per well was added in a specially made solubility sample plate, and then 970 μL of PBS with different pH was added to each well (pH was 4.0 and 7.4, respectively). Repeated wells were set in the test. A stir bar was added to each well that was covered with a polytetrafluoroethylene or silica gel plug. Stirring was performed at 25° C. at 1100 rpm for 2 hours. 10 μL of sample was taken from each well, and then 990 μL of water and acetonitrile mixture (including internal standard substance) was added to mix well, followed by filtering with a filter plate.
Standard treatment: 10 mM stock solution was diluted with DMSO to 300 μM, then 10 μL of compound diluent was taken, and 990 μL of water and acetonitrile mixture (including internal standard substance) was added to mix well and formulated into a standard solution with the final concentration 3 μM.
The solubility sample plate was placed in the autosampler and the LC-MS/MS method was used for analysis. The concentration of the test compound was calculated by the response value of the test compound and standard, and the concentration of the standard.

[2] = system: zebrafish non-alcoholic fatty liver; experiment: Fat reduction or elimination effect on thioacetamide-induced zebrafish non-alcoholic fatty liver (Oil Red O staining); type: in vivo; details: 100 μM; for The total optical density of liver fat: mean ± SE, n = 10; for inhibition at 100 µM: Danio rerio, read-out: Inhibition rate of liver steatosis
Experimental: 40 mM stock solution of test compounds 4, 5, 6, 7, 46, 67, 78, 85, 92 and 101 were prepared with DMSO, and stored in a refrigerator at −20° C. The positive control compound S-adenosylmethionine (SAM) was purchased from Aladdin Reagent (Shanghai) Co., Ltd., with the batch number F1523051, which was prepared into a 50 mM stock solution with DMSO. The control compound silymarin was purchased from Shanghai Dibai Biotechnology Co., Ltd., with the batch number EE09, which was prepared into a 40 mM stock solution with DMSO. Thioacetamide was purchased from Sigma-Aldrich, with the batch number BCBV3031, which wasprepared into a 1 M stock solution with DMSO. Oil Red O was purchased from Sigma-Aldrich, with the batch number SLBP5248V. 4% paraformaldehyde was purchased from Dingguo Biotechnology Co., Ltd., with the batch number 773001800. Propylene glycol was purchased from Sinopharm Chemical Reagent Co., Ltd., with the batch number 20170615.
The melanin allele mutant translucent Albino line zebrafish was reproduced in natural paired mating. The fish age was 3 days after fertilization, with 30 fish per experimental group.
The above zebrafish were raised in fish farming water at 28° C. (water quality: 200 mg instant sea salt was added to 1 L of reverse osmosis water, conductivity was 480-510 μS/cm; pH was 6.9-7.2; hardness was 53.7-71.6 mg/L CaCOs), the experimental animal use license number was: SYXK (Zhejiang) 2012-0171. Feeding management met the requirements of international AAALAC certification.
Three days after fertilization, the normal melanin allele mutant translucent Albino strain of zebrafish was randomly selected and placed in a six well plate with 30 fish per well (i.e. each experimental group), and then thioacetamide with the final concentration of 7 mM was used to treat zebrafish for 72 hours to establish the non-alcoholic fatty liver model.
The zebrafish were transferred to a six-well plate, with 30 fish per well (i.e., each experimental group) randomly. Non-alcoholic fatty liver model in zebrafish were induced by thioacetamide. 40 mM test compounds 4, 5, 6, 7, 46, 67, 78, 85, 92 and 101 were quantitatively transferred to a six-well plate, and diluted with water to the corresponding concentration. Test compounds 4, 5, 6 and 7 were formulated into two dose groups with final concentration of 100 μM and 200 μM, respectively; test compound 46 was formulated into a dose group with final concentration of 200 μM; test compounds 67, 78, 85, 92 and 101 were formulated into dose groups with a final concentration of 100 μM; 50 mM positive control SAM was formulated with water to a dose group with final concentration of 50 μM, and a 40 mM positive control silymarin was formulated with water to two concentration dose groups with final concentration of 100 μM and 200 μM. A normal control group (zebrafish treated with fish farming water) and a model control group were set at the same time, and the total volume of each well was 3 mL. Except for the normal control group, the other experimental groups were treated with thioacetamide for 72 hours and stained with Oil Red O. After staining, 10 zebrafish were randomly selected from each experimental group and photographed under a dissecting microscope, NIS-Elements D 3.10 advanced image processing software was used to perform image analysis and collect data, the total optical density (S) of zebrafish liver fat was statistically analyzed, and for the inhibitory effect of each experimental group on liver steatosis of zebrafishwas evaluated by the following formula, the results of statistical analysis were expressed as mean±SE: Inhibition rate of liver steatosis (%)=[S(model control group)−S(test compound group)]/[S(model control group)−S(normal control group)]×100%
Statistical analysis was performed using analysis of variance and Dunnett's T-test, and p<0.05 indicated a significant difference. […]

[3] = system: Patients With Primary Biliary Cirrhosis; details: phase III study; cited from earlier work
[4] = system: adults with nonalcoholic steatohepatitis (NASH) and fibrosis stages F2-F3; details: phase II clinical results; cited from earlier work

solubility at 2 h ([1]; pH 4, aqueous buffer) [µM]	solubility at 2 h ([1]; pH 7.4, aqueous buffer) [µM]	SMILES	Solubility in PBS buffer solution compared with silymarin (in words) [1]	Inhibition rate of liver steatosis [2]	Therapeutic effect on non-alcoholic fatty liver of zebrafish (in words) [2]	The total optical density of liver fat [2] [Pixels]	inhibition at 100 µM [2] [%]	patients with serious cardiovascular adverse events [3] [%]	subjects with improved fibrosis after treatment [4] [%]
148 (≈ 73.9 µg/mL)	146 (≈ 72.9 µg/mL)	COc1cc(O)c2c(c1)OC(c1cc(O)c3c(c1)OC(c1ccc(O)c(OC)c1)C(CO)O3)C(O)C2 (stereo not shown) [Compound 67, 2-{8-hydroxy-3-(4-hydroxy-3-methoxyphenyl)-2-hydroxymethyl-2,3-dihydrobenzo[b][1,4]dioxan-6-yl}-7-methoxychroman-3,5-diol]	significantly higher than that of silymarin	>100*** %	significant therapeutic effects	16667 ± 469	> 100	–	–
160 (≈ 79.7 µg/mL)	150 (≈ 75 µg/mL)	COc1cc(C2Oc3cc(C4Oc5cc(O)cc(OC)c5CC4O)cc(O)c3OC2CO)ccc1O (stereo not shown) [Compound 85, 2-{8-hydroxy-3-(4-hydroxy-3-methoxyphenyl)-2-hydroxymethyl-2,3-dihydrobenzo[b][1,4]dioxan-6-yl}-5-methoxychroman-3,7-diol]	significantly higher than that of silymarin	>100*** %	significant therapeutic effects	17378 ± 710	> 100	–	–
–	–	CC[C@H]1[C@@H](O)[C@@H]2[C@H](CC[C@]3(C)[C@@H]([C@H](C)CCC(=O)O)CC[C@@H]23)[C@@]2(C)CC[C@@H](O)C[C@@H]12 [Obeticholic acid]	–	–	–	–	–	3	–
–	–	Cc1cc(F)c(C(=O)Nc2cccc(-c3nncn3C(C)C)n2)cc1-n1cnc(C2CC2)c1 [GS-4997]	–	–	–	–	–	–	43
